# Results as given in patent US7592422B2, “Modified plasminogen activator inhibitor type-1 and methods based thereon” (Medical College of Ohio, priority 2002, dated 2009).
# Assays:
# [1] = tested on: chicken chorioallantoic membrane (angiogenesis in chick embryos); experiment: Chicken chorioallantoic membrane (CAM) assay; assay type: in vivo
# Procedure: The one-day-old fertilized eggs were incubated for three days in the water-jacketed incubator (38° C., 85% humidity). The eggs were cracked and the chick embryos with intact yolks were placed in plastic Petri dishes containing 10 ml of RPMI-1640 medium (38° C., 85% humidity, 3% of CO2). After 3 days of incubation, the methylcellulose disk containing inhibitor was implanted on the CAMs of the individual embryos. After 48 h of incubation, CAM of individual embryo was analyzed for formation of avascular zones and photographed. The angiostatic effect was determined as a percentage of the area of blood vessels under the methylcellulose disks (3-5 eggs for each concentration) in relation to the non-treated areas. The area below the dialysis bag and two non-treated areas were scanned and saved on computer disk as tif files. Color images were converted into black/white images, contrast was enhanced, and images were saved as 16-bitmap files using Paint Software (Microsoft Corporation, Redmond, Va.). Black/white images were converted into false color (rainbow striped) images using Transform2 Software (Fortner, Sterling, Va.). […] This method provides some quantification of angiogenesis.
# urokinase HMWt, Choay = urokinase HMWt, Choay (Homo sapiens, UniProt P00749); details: 0.05 M Tris pH 8.8, 37° C., substrate 0.5 mM, urokinase at 1000 u/mL; cited from earlier work
# urokinase LMWt, Abbott = urokinase LMWt, Abbott (Homo sapiens, UniProt P00749); details: 0.05 M Tris pH 8.8, 37° C., substrate 0.5 mM, urokinase at 1000 u/mL; cited from earlier work
molecule,measurement,setting,value
"O=C(O[C@@H]1Cc2c(O)cc(O)cc2O[C@@H]1c1cc(O)c(O)c(O)c1)c1cc(O)c(O)c(O)c1 [EGCG, epigallocatechin gallate]",colour change of methylcellulose disks (sign of probable oxidation),[1]; in methylcellulose disk on CAM,the methylcellulose disks quickly change color
Cbo-L-(γ)-Glu (α-t-BuO)-Gly-Arg-pNA.2AcOH [No. 244],Vmax,"urokinase HMWt, Choay",0.54 μM mm-^1
same,κm,"urokinase HMWt, Choay",30 µM
same,Vmax,"urokinase LMWt, Abbott",0.53 μM mm-^1
same,κm,"urokinase LMWt, Abbott",80 µM
VEGF,"vessel formation, positive control disk",[1]; methylcellulose disk containing VEGF,dense areas of newly formed vessels were developed
N=C(N)NC(=O)c1nc(Cl)c(N)nc1N [amiloride],large avascular zones outside of areas covered by methylcellulose disk containing the inhibitor,[1]; 48 h,The effect was observed
